According to paper PMC10222454, “Characterization of the Molecular Diversity and Degranulation Activity of Mastoparan Family Peptides from Wasp Venoms” (Toxins, 2023):
Where two headings read alike, the source gives them in different places. Ends that are not written are not given here.

Tests used:
RBL-2H3 cells = assay type: cell-based, rat; conditions: for EC50 / EC50 (μg/mL), RBL-2H3: pH 7.4
Method: (§1) RBL-2H3 cells (rat mucosal-type mast cell line) and P815 cells (mouse mast cell tumor cell line) were obtained from the BeNa Culture Collection (Xinyang, China). RBL-2H3 cells were cultured in DMEM (Gibco, Wuhan, China) supplemented with 15% FBS (Gibco), and P815 cells were maintained in RPMI 1640 basic medium supplemented with 10% FBS and antibiotics (100 mg/L streptomycin and 1 × 10^5 U/L penicillin) in a humidified atmosphere (5% CO2, 37 °C).
(§2) Degranulation was analyzed by measuring the release of the granule marker N-acetyl-D-glucosaminidase (β-hexosaminidase), which colocalizes with histamine, as described in [24]. For this, 2 × 10^5 P815 cells/mL or 1.5 × 10^5 RBL-2H3 cells/mL were seeded in 96-well cell culture plates. Twelve hours later, the cells were incubated with various concentrations of mastoparans dissolved in 100 μL HEPES buffer (137 mM NaCl, 2.7 mM KCl, 1 mM MgCl2, 1.8 mM CaCl2, 20 mM HEPES, 1 mg/mL BSA, and 1 mg/mL glucose, pH 7.4) for 15 min at 37 °C and 5% CO2. Then, the reactions were quenched by the addition of 0.15 mL of ice-cold HEPES buffer. After centrifugation, the supernatants were sampled for the β-hexosaminidase assay. Briefly, 50 μL samples of the cell culture supernatants and 50 μL of the substrate, 5 mM p-nitrophenyl-N-acetyl-b-D-glucosaminide (Sigma) in 0.2 M citrate, pH 4.5, were incubated in 96-well plates at 37 °C and 5% CO2 for 16–18 h to yield the chromophore p-nitrophenol, and the reactions were stopped by the addition of 100 μL of 0.2 M glycine solution, pH 10.7. The absorbance of the colored product was assessed at 405 nm using a microtiter plate reader. The values for β-hexosaminidase released in the medium are expressed as the percentage of total β-hexosaminidase, which was measured in the cells after lysis in 0.1% Triton X-100. The experiment was repeated three times, and the results represent the mean and standard deviation (SD) of quadruplicate tests. The percent degranulation was calculated according to the following equation:Degranulation Rate (%) = 100% × (Amastoparans − AHEPES)/(ATriton X-100 − AHEPES).
Statistical analysis was performed with GraphPad Prism software. The curve of mast cell degranulation induced by wasp mastoparans was generated in SigmaPlot 12.5 software, and the EC50 was calculated according to the following equation (Four-Parameter Logistic Curve): y = min + (max − min)/(1 + (x/EC50) […] Hillslope).

P815 cells = test: Mast cell degranulation activity (β-hexosaminidase release) in P815 cells; assay type: cell-based, mouse
Method: as §1, §2

[1] = RBL-2H3 cells, 80 μg/mL peptide, 15 min at 37 °C, % of total β-hexosaminidase (0.1% Triton X-100 lysis)
[2] = P815 cells, 80 μg/mL peptide, 15 min at 37 °C, % of total β-hexosaminidase (0.1% Triton X-100 lysis)

Compound	EC50 (RBL-2H3 cells)	also measured
CC[C@H](C)[C@H](NC(=O)[C@H](CC(=O)O)NC(=O)[C@@H](N)Cc1ccccc1)C(=O)N[C@@H](CCSC)C(=O)NCC(=O)N[C@@H](CC(C)C)C(=O)N[C@H](C(=O)N[C@@H](CCCCN)C(=O)N[C@@H](CCCCN)C(=O)N[C@H](C(=O)N[C@@H](C)C(=O)NCC(=O)N[C@@H](C)C(=O)N[C@@H](CC(C)C)C(N)=O)C(C)C)[C@@H](C)CC [EMP-ER]	76.2 ± 5.81 µM	
CC[C@H](C)[C@H](N)C(=O)N[C@@H](CC(N)=O)C(=O)N[C@@H](CC(C)C)C(=O)N[C@@H](CCCCN)C(=O)N[C@@H](C)C(=O)N[C@@H](CC(C)C)C(=O)N[C@@H](C)C(=O)N[C@@H](C)C(=O)N[C@@H](CC(C)C)C(=O)N[C@@H](C)C(=O)N[C@@H](CCCCN)C(=O)N[C@@H](CCCCN)C(=O)N[C@H](C(=O)N[C@@H](CC(C)C)C(N)=O)[C@@H](C)CC [Mastoparan(-L), reference compound]	52.1 ± 3.21 µM	
FDLLGLVKKVASAL-NH2 [EpVP2a]	31.6 ± 4.31 µM	
FDLLGLVKSVVSAL-NH2 [EpVP2b]	25.9 ± 2.88 µM	
FDVMGIIKKIASAL-NH2 [EMP-EF]	25.1 ± 1.59 µM	
GRILSFIKGLAEHL-NH2 [EMP-OD]	> 200 µM	Degranulation at 80 μg/mL, RBL-2H3 (RBL-2H3 cells; [1]): 4%; EC50 (μg/mL), RBL-2H3 (RBL-2H3 cells): >300 µg/mL; Degranulation at 80 μg/mL, P815 (P815 cells; [2]): <20%
IDWKKLLDAAKQIL-NH2 [Polybia-MPI]	23.2 ± 2.09 µM	
IDWLKLGKMVMDVL-NH2 [Polybia-MPIII]	114 ± 59.3 µM	
IDWLKLRVISVIDL-NH2 [Polybia-MPIV]	> 200 µM	Degranulation at 80 μg/mL, RBL-2H3 (RBL-2H3 cells; [1]): 6%; EC50 (μg/mL), RBL-2H3 (RBL-2H3 cells): >300 µg/mL; Degranulation at 80 μg/mL, P815 (P815 cells; [2]): <20%
IKWKAILDAVKKVL-NH2 [Mastoparan-A]	28.4 ± 1.55 µM	
INLFGFAALVKKFL-NH2 [Mastoparan-T4]	18.2 ± 3.52 µM	
INLKAIAAFAKKLL-NH2 [Mastoparan-T]	138 ± 68.4 µM	
INLKAIAALAKKLF-NH2 [Mastoparan-AF]	18.1 ± 3.94 µM	
INLKAIAALAKKLL-NH2 [Mastoparan-M]	> 200 µM	Degranulation at 80 μg/mL, RBL-2H3 (RBL-2H3 cells): 10%; EC50 (μg/mL), RBL-2H3 (RBL-2H3 cells): >300 µg/mL; Degranulation at 80 μg/mL, P815 (P815 cells): <20%
INLKAIAALVKKVL-NH2 [HR1]	48.8 ± 3.57 µM	
INLKALAALVKKVL-NH2 [Mastoparan-II]	58.7 ± 24.8 µM	
INLKALLAVAKKIL-NH2 [Mastoparan-C]	32.6 ± 8.56 µM	

Compound	EC50 (RBL-2H3 cells)	also measured
INLKVFAALVKKFL-NH2 [Mastoparan-T1]	32.1 ± 10 µM	
INLKVFAALVKKLL-NH2 [Mastoparan-T2]	24.2 ± 7.89 µM	
INLLKIAKGIIKSL-NH2 [EMP-AF]	76.9 ± 19.6 µM	
INMKASAAVAKKLL-NH2 [Mastoparan-VB1]	> 200 µM	degranulation of RBL-2H3 / mast cells, in words (RBL-2H3 cells; RBL-2H3 cells): neither of them could induce the degranulation; Degranulation at 80 μg/mL, RBL-2H3 (RBL-2H3 cells; [1]): −1%; EC50 (μg/mL), RBL-2H3 (RBL-2H3 cells): >300 µg/mL; Degranulation at 80 μg/mL, P815 (P815 cells; [2]): <20%
INMKAVAAVAKKPL-NH2 [Mastoparan-VB2]	> 200 µM	degranulation of RBL-2H3 / mast cells, in words (RBL-2H3 cells; RBL-2H3 cells): neither of them could induce the degranulation; Degranulation at 80 μg/mL, RBL-2H3 (RBL-2H3 cells; [1]): 0%; EC50 (μg/mL), RBL-2H3 (RBL-2H3 cells): >300 µg/mL; Degranulation at 80 μg/mL, P815 (P815 cells; [2]): <20%
INWAKLGKLALQAL-NH2 [Ropalidia-MP]	33 ± 5.79 µM	
INWHDIAIKNIDAL-NH2 [Polybia-MPV]	> 200 µM	Degranulation at 80 μg/mL, RBL-2H3 (RBL-2H3 cells; [1]): 1%; EC50 (μg/mL), RBL-2H3 (RBL-2H3 cells): >300 µg/mL; Degranulation at 80 μg/mL, P815 (P815 cells; [2]): <20%
INWKAIIEAAKQAL-NH2 [Protopolybia-MPII]	77.9 ± 9.08 µM	
INWKAILQRIKKML-NH2 [Agelaia-MPII]	34.7 ± 9.03 µM	
INWKALLDAAKKVL-NH2 [Protonectarina-MP]	46.4 ± 3.1 µM	
INWKGIAAMAKKLL-NH2 [Mastoparan-X(V)]	78.8 ± 15 µM	
INWKGIAAMKKLL-NH2 [Mastoparan-like peptide 12b]	> 200 µM	Degranulation at 80 μg/mL, RBL-2H3 (RBL-2H3 cells; [1]): 11%; EC50 (μg/mL), RBL-2H3 (RBL-2H3 cells): >300 µg/mL; Degranulation at 80 μg/mL, P815 (P815 cells; [2]): <20%
INWKKIAEIGKQVLSAL-NH2 [Dominulin B]		Degranulation at 80 μg/mL, RBL-2H3 (RBL-2H3 cells; [1]): 24%; EC50 (μg/mL), RBL-2H3 (RBL-2H3 cells): 148.45 ± 51.31 µg/mL; Degranulation at 80 μg/mL, P815 (P815 cells; [2]): <20%
INWKKIAEVGGKILSSL-NH2 [Dominulin A]	> 200 µM	Degranulation at 80 μg/mL, RBL-2H3 (RBL-2H3 cells; [1]): 11%; EC50 (μg/mL), RBL-2H3 (RBL-2H3 cells): >300 µg/mL; Degranulation at 80 μg/mL, P815 (P815 cells; [2]): <20%
INWKKIASIGKEVLKAL-NH2 [PMM2]	36.6 ± 4.61 µM	
INWKKIFQKVKNLV-NH2 [PDD-A]	65.8 ± 19.5 µM	
